By LD50 is commonly meant the dose at which mortality reaches 50%.

The text below walks through data of patent publication US4252804A, “Therapeutically useful 3,4,5-trimethoxybenzene derivatives” (Metabio-Joullie, priority 1977, dated 1981).

The first series can be described thus: Acute toxicity for oral administration in mice. It counts as in vivo. Particulars: mouse, in vivo, po, suspension in 10% gum arabic. As to the method: 1--ACUTE TOXICITY FOR ORAL ADMINISTRATION IN MICE
The compounds are administered orally in increasing doses in suspension in a 10% gum arabic solution to groups of 5 .female. mice of mean weight 25 g. The 50% lethal doses (LD 50) are calculated by the method of KARBER and BEHRENS (Arch. Exp. Path. Pharmakol. 1935, 177, 379-388).
The LD 50's found are summarised in Table IV below and indicate that the tested compounds have low toxicity.
In the case of `COc1cc(NCC(=O)N2CCOc3ccc(Cl)cc32)cc(OC)c1OC` [compound 762], the LD50 was greater than 5000 mg/kg.

For the compound `COc1cc(NC(=O)N2CCOc3ccc(Cl)cc32)cc(OC)c1OC` [compound 770], the LD50 was greater than 5000 mg/kg.

The compound `COc1cc(NC(=O)N2CCOc3ccccc32)cc(OC)c1OC` [compound 774] registered an LD50 greater than 5000 mg/kg.

`COc1cc(NC(=O)Nc2ccnc3cc(Cl)ccc23)cc(OC)c1OC` [compound 777] registered an LD50 greater than 5000 mg/kg.

Regarding `COc1cc(NC(=O)NC2CCCCC2)cc(OC)c1OC` [compound 778], the LD50 is greater than 5000 mg/kg.

In the case of `CCCCN(CCCC)C(=O)Nc1cc(OC)c(OC)c(OC)c1` [compound 780], the LD50 is greater than 5000 mg/kg.

`COc1cc(NC(=O)NC2CCCCCCC2)cc(OC)c1OC` [compound 781] showed an LD50 greater than 5000 mg/kg.

Consider `COc1cc(NCC(=O)N2CCOc3ccccc32)cc(OC)c1OC` [compound 782], for which the LD50 is greater than 5000 mg/kg.

Turning to `COc1cc(NC(=O)NCCc2ccccc2)cc(OC)c1OC` [compound 783], the LD50 is greater than 5000 mg/kg.

`COc1cc(NC(=O)NC(C)CN(C)C)cc(OC)c1OC` (centres unmarked) [compound 784] gave an LD50 of 3380 mg/kg.

The compound `COc1cc(NC(=O)NCCCN(C)C)cc(OC)c1OC` [compound 785] yielded an LD50 of 2200 mg/kg.

In turn, `COc1cc(NC(=O)CN2CCOc3ccccc32)cc(OC)c1OC` [compound 792] returned a median lethal dose (LD50) greater than 5000 mg/kg.

In turn, `COc1cc(NCC(=O)N2CCOCC2)cc(OC)c1OC` [compound 793] had an LD50 of 1250 mg/kg.

With `COc1cc(NC(=O)N2CCN(C(c3ccccc3)c3ccc(Cl)cc3)CC2)cc(OC)c1OC` (centres unmarked) [compound 795], the LD50 was greater than 5000 mg/kg.

For the compound `COc1cc(NC(=O)NCCc2ccc(Cl)cc2)cc(OC)c1OC` [compound 796], the 50% lethal dose (LD50) was greater than 5000 mg/kg.

Take `COc1cc(NC(=O)NCC2CCCO2)cc(OC)c1OC` (centres unmarked) [compound 797]: the LD50 was determined as 4400 mg/kg.

As for `COc1cc(NC(=O)NC2CCCCCC2)cc(OC)c1OC` [compound 799], the LD50 was greater than 5000 mg/kg.

Regarding `COc1cc(NC(=O)NC2CCCC2)cc(OC)c1OC` [compound 800], the 50% lethal dose (LD50) is greater than 5000 mg/kg.

`COc1cc(NC(=O)N(C)C2CCCCC2)cc(OC)c1OC` [compound 802] came in with an LD50 greater than 5000 mg/kg.

As to `COc1cc(NC(=O)N(C)CCCN(C)C)cc(OC)c1OC` [compound 805], the LD50 came out at 2500 mg/kg.

Regarding `C=CCN(C(=O)Nc1cc(OC)c(OC)c(OC)c1)C1CCCCC1` [compound 811], the LD50 is 5000 mg/kg.

For the compound `C=C(C)CNC(=O)Nc1cc(OC)c(OC)c(OC)c1` [compound 812], the LD50 stood at 2000 mg/kg.

In turn, `COc1cc(NC(=O)N2CCCCCC2)cc(OC)c1OC` [compound 813] gave a 50% lethal dose (LD50) of 3000 mg/kg.

`COc1cc(NC(=O)N2CCC(O)CC2)cc(OC)c1OC` [compound 814]: the LD50 amounted to 5000 mg/kg.

`COc1cc(NC(=O)NCC2CCCCO2)cc(OC)c1OC` (centres unmarked) [compound 815]: the 50% lethal dose (LD50) is 5000 mg/kg.

Compound `COc1cc(NC(=O)N2CCOC(C)C2)cc(OC)c1OC` (centres unmarked) [compound 816] gave an LD50 of 2500 mg/kg.

Take `COc1cc(NC(=O)N2CCCO2)cc(OC)c1OC` [compound 820]: the LD50 came out at 1250 mg/kg.

`COc1cc(N(Cc2ccccc2)C(=O)N2CCOCC2)cc(OC)c1OC` [compound 821] registered an LD50 of 2500 mg/kg.

In turn, `COc1cc(N(CCN2CCOCC2)C(=O)N2CCOCC2)cc(OC)c1OC` [compound 822] showed an LD50 of 5000 mg/kg.

As to `COc1cc(NC(=O)N2CCN(CC(=O)N3CCCCC3)CC2)cc(OC)c1OC` [compound 830], the LD50 came to 5000 mg/kg.

The compound `COc1cc(NC(=O)NC(=O)CN2CCOCC2)cc(OC)c1OC` [compound 834] came in with an LD50 of 3380 mg/kg.

Still in this series, the particulars now being: mouse, in vivo, suspension in 10% gum arabic.
With `COc1cc(OC(=O)N2CCN(C)CC2)cc(OC)c1OC` [compound 767], the LD50 was determined as 1020 mg/kg.

In turn, `COc1cc(OC(=O)N2CCOc3ccccc32)cc(OC)c1OC` [compound 773] showed an LD50 greater than 5000 mg/kg.

The compound `COc1cc(NC(=O)ON2CCOCC2)cc(OC)c1OC` [compound 828] had an LD50 greater than 5000 mg/kg.

In turn, `COc1cc(NC(=O)CCN2CCC(O)(c3ccc(Cl)cc3)CC2)cc(OC)c1OC` [compound 829] showed an LD50 greater than 5000 mg/kg.
